According to US11753407B2, “Compounds for treating spinal muscular atrophy” (PTC Therapeutics, Inc., priority 2012, dated 2023):

Experiments:
[1] = system: Smn protein in SMA patient fibroblast cells (GM03813); experiment: Smn protein assay in cultured cells (SMN HTRF); type: cell-based, human; conditions: SMA patient fibroblast cells, 48 hours; for EC1.5x for Smn protein expression: 7-point concentration curve, SMN HTRF, concentration producing 1.5 times Smn protein vs DMSO vehicle control; for maximum fold (Fold) increase of Smn protein: 7-point concentration data, fold relative to vehicle control
Method in brief: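 Read-out: HTRF 665/620 nm ratio, blank-subtracted as ΔF, then expressed as fold over DMSO vehicle. Fibroblasts from SMA patients were exposed to compounds for 48 h (7 points, 3.16-fold steps, triplicates). Values are EC1.5× and maximum fold Smn increase.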

[2] = system: SMN2 minigene mRNA (SMN2-A minigene) in HEK293H cells; experiment: SMN2 minigene mRNA splicing RT-qPCR assay in cultured cells; type: cell-based, human; conditions: Homo sapiens, HEK293-H; concentration increasing full length SMN2 mRNA 1.5-fold relative to vehicle-treated cells; HEK293H cells with SMN2-A minigene, 24 hours, 7-point concentration data; read-out: EC1.5x for production of full length SMN2 mRNA
Method in brief: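 Read-out: minigene-specific full-length (exon 7-included) SMN2 mRNA by one-step multiplex RT-qPCR, normalized to GAPDH and divided by vehicle-treated level. Stable SMN2-A minigene HEK293H cells, 24 h compound exposure, 7 concentrations in duplicate. EC1.5× = concentration raising FL mRNA 1.5-fold.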

SMILES | melting point | EC1.5x for Smn protein expression [1] | maximum fold (Fold) increase of Smn protein [1] | EC (1.5-fold increase) [2] [µM]
CCN(CC)C[C@@H]1CCN(c2ccc3nc(-c4cc5c(C)nc(C)cn5n4)cc(=O)n3c2)C1 [Compound 778, 7-{(3S)-3-[(diethylamino)methyl]pyrrolidin-1-yl}-2-(4,6-dimethylpyrazolo[1,5-a]pyrazin-2-yl)-4H-pyrido[1,2-a]pyrimidin-4-one] | 194 to 196 °C | *** (an EC1.5× between >0.3 μM and ≤1 μM is indicated by three stars (***)) | ***** (a fold increase >1.65 is indicated by five stars (*****)) | < 0.1
Cc1cn2nc(-c3cc(=O)n4cc(N5CC(CN(C)C)C5)ccc4n3)cc2c(C)n1 [Compound 780, 7-{3-[(dimethylamino)methyl]azetidin-1-yl}-2-(4,6-dimethylpyrazolo[1,5-a]pyrazin-2-yl)-4H-pyrido[1,2-a]pyrimidin-4-one] | 228 to 230 °C | **** (an EC1.5x≤0.3 μM is indicated by four stars (****)) | ***** (a fold increase >1.65 is indicated by five stars (*****)) | < 0.1
CCN(CC)CC1CN(c2ccc3nc(-c4cc5c(C)nc(C)cn5n4)cc(=O)n3c2)C1 [Compound 781, 7-{3-[(diethylamino)methyl]azetidin-1-yl}-2-(4,6-dimethylpyrazolo[1,5-a]pyrazin-2-yl)-4H-pyrido[1,2-a]pyrimidin-4-one] | 205 to 207 °C | **** (an EC1.5x≤0.3 μM is indicated by four stars (****)) | ***** (a fold increase >1.65 is indicated by five stars (*****)) | < 0.1
CCc1nc(C)cn2cc(-c3cc(=O)n4cc(N5CCN6CCC[C@H]6C5)ccc4n3)cc12 [Compound 782, 2-(1-ethyl-3-methylpyrrolo[1,2-a]pyrazin-7-yl)-7-[(8aS)-hexahydropyrrolo[1,2-a]pyrazin-2(1H)-yl]-4H-pyrido[1,2-a]pyrimidin-4-one] | 220 to 222 °C | **** (an EC1.5x≤0.3 μM is indicated by four stars (****)) | ***** (a fold increase >1.65 is indicated by five stars (*****)) | < 0.1
Cc1cc(C2CCN(C)CC2)cn2c(=O)cc(-c3ccc4c(cnn4C)c3)nc12 [Compound 784, 9-methyl-2-(1-methyl-1H-indazol-5-yl)-7-(1-methylpiperidin-4-yl)-4H-pyrido[1,2-a]pyrimidin-4-one] | 255 to 263 °C | *** (an EC1.5× between >0.3 μM and ≤1 μM is indicated by three stars (***)) | **** (a fold increase between >1.5 and ≤1.65 is indicated by four stars (****)) | 0.1 to 0.3
CCN1CCC(c2cc(C)c3nc(-c4ccc5c(cnn5C)c4)cc(=O)n3c2)CC1 [Compound 786, 7-(1-ethylpiperidin-4-yl)-9-methyl-2-(1-methyl-1H-indazol-5-yl)-4H-pyrido[1,2-a]pyrimidin-4-one] | 236 to 240 °C | *** (an EC1.5× between >0.3 μM and ≤1 μM is indicated by three stars (***)) | **** (a fold increase between >1.5 and ≤1.65 is indicated by four stars (****)) | 0.1 to 0.3
Cc1cc(C2CCN(CCO)CC2)cn2c(=O)cc(-c3ccc4c(cnn4C)c3)nc12 [Compound 788, 7-[1-(2-hydroxyethyl)piperidin-4-yl]-9-methyl-2-(1-methyl-1H-indazol-5-yl)-4H-pyrido[1,2-a]pyrimidin-4-one] | 225 to 228 °C | **** (an EC1.5x≤0.3 μM is indicated by four stars (****)) | ***** (a fold increase >1.65 is indicated by five stars (*****)) | < 0.1
Cc1nc(C2=CCNCC2)cn2c(=O)cc(-c3ccc4nn(C)cc4c3)nc12 [Compound 791, 9-methyl-2-(2-methyl-2H-indazol-5-yl)-7-(1,2,3,6-tetrahydropyridin-4-yl)-4H-pyrazino[1,2-a]pyrimidin-4-one] | > 240 °C (dec.) | **** (an EC1.5x≤0.3 μM is indicated by four stars (****)) | ***** (a fold increase >1.65 is indicated by five stars (*****)) | < 0.1
CCc1nc(C)cn2nc(-c3cc(=O)n4cc(C5CCN(C6CCC6)CC5)cc(C)c4n3)cc12 [Compound 792, 7-(1-cyclobutylpiperidin-4-yl)-2-(4-ethyl-6-methylpyrazolo[1,5-a]pyrazin-2-yl)-9-methyl-4H-pyrido[1,2-a]pyrimidin-4-one] | 231 to 237 °C | *** (an EC1.5× between >0.3 μM and ≤1 μM is indicated by three stars (***)) | ***** (a fold increase >1.65 is indicated by five stars (*****)) | < 0.1
CCc1cc(-c2cc(=O)n3cc(N4CCN5CCC[C@@H]5C4)ccc3n2)cn2cc(C)nc12 [Compound 794, 2-(8-ethyl-2-methylimidazo[1,2-a]pyridin-6-yl)-7-[(8aR)-hexahydropyrrolo[1,2-a]pyrazin-2(1H)-yl]-4H-pyrido[1,2-a]pyrimidin-4-one] | 231 to 235 °C | **** (an EC1.5x≤0.3 μM is indicated by four stars (****)) | ***** (a fold increase >1.65 is indicated by five stars (*****)) | < 0.1
CCc1cc(-c2cc(=O)n3cc(N4CCN5CCC[C@H]5C4)ccc3n2)cn2cc(C)nc12 [Compound 795, 2-(8-ethyl-2-methylimidazo[1,2-a]pyridin-6-yl)-7-[(8aS)-hexahydropyrrolo[1,2-a]pyrazin-2(1H)-yl]-4H-pyrido[1,2-a]pyrimidin-4-one] | 229 to 233 °C | **** (an EC1.5x≤0.3 μM is indicated by four stars (****)) | ***** (a fold increase >1.65 is indicated by five stars (*****)) | < 0.1
Cc1nc(C2CCNCC2)cn2c(=O)cc(-c3ccc4nn(C)cc4c3)nc12 [Compound 796, 9-methyl-2-(2-methyl-2H-indazol-5-yl)-7-(piperidin-4-yl)-4H-pyrazino[1,2-a]pyrimidin-4-one] | 229 to 235 °C | **** (an EC1.5x≤0.3 μM is indicated by four stars (****)) | ***** (a fold increase >1.65 is indicated by five stars (*****)) | < 0.1

Now from value to molecule, other results behind:

melting point | SMILES | EC1.5x for Smn protein expression [1] | maximum fold (Fold) increase of Smn protein [1] | EC (1.5-fold increase) [2] [µM]
223 to 233 °C | CCc1nc(C)cn2nc(-c3cc(=O)n4cc(N5CCN[C@H](C)C5)cc(C)c4n3)cc12 [Compound 783, 2-(4-ethyl-6-methylpyrazolo[1,5-a]pyrazin-2-yl)-9-methyl-7-[(3R)-3-methylpiperazin-1-yl]-4H-pyrido[1,2-a]pyrimidin-4-one] | **** (an EC1.5x≤0.3 μM is indicated by four stars (****)) | ***** (a fold increase >1.65 is indicated by five stars (*****)) | < 0.1
234 to 240 °C | CCc1nc(C)cn2nc(-c3cc(=O)n4cc(N5CCN(C)[C@H](C)C5)cc(C)c4n3)cc12 [Compound 785, 7-[(3R)-3,4-dimethylpiperazin-1-yl]-2-(4-ethyl-6-methylpyrazolo[1,5-a]pyrazin-2-yl)-9-methyl-4H-pyrido[1,2-a]pyrimidin-4-one] | **** (an EC1.5x≤0.3 μM is indicated by four stars (****)) | ***** (a fold increase >1.65 is indicated by five stars (*****)) | < 0.1
227 to 236 °C | CCc1nc(C)cn2nc(-c3cc(=O)n4cc(N5CCN[C@@H](C)C5)cc(C)c4n3)cc12 [Compound 787, 2-(4-ethyl-6-methylpyrazolo[1,5-a]pyrazin-2-yl)-9-methyl-7-[(3S)-3-methylpiperazin-1-yl]-4H-pyrido[1,2-a]pyrimidin-4-one] | **** (an EC1.5x≤0.3 μM is indicated by four stars (****)) | ***** (a fold increase >1.65 is indicated by five stars (*****)) | < 0.1
235 to 241 °C | CCc1nc(C)cn2nc(-c3cc(=O)n4cc(N5CCN(C)[C@@H](C)C5)cc(C)c4n3)cc12 [Compound 789, 7-[(3S)-3,4-dimethylpiperazin-1-yl]-2-(4-ethyl-6-methylpyrazolo[1,5-a]pyrazin-2-yl)-9-methyl-4H-pyrido[1,2-a]pyrimidin-4-one] | **** (an EC1.5x≤0.3 μM is indicated by four stars (****)) | ***** (a fold increase >1.65 is indicated by five stars (*****)) | < 0.1
210 to 216 °C | CCc1nc(C)cn2nc(-c3cc(=O)n4cc(C5CCN(CCO)CC5)cc(C)c4n3)cc12 [Compound 793, 2-(4-ethyl-6-methylpyrazolo[1,5-a]pyrazin-2-yl)-7-[1-(2-hydroxyethyl)piperidin-4-yl]-9-methyl-4H-pyrido[1,2-a]pyrimidin-4-one] | **** (an EC1.5x≤0.3 μM is indicated by four stars (****)) | ***** (a fold increase >1.65 is indicated by five stars (*****)) | < 0.1
